Test results published in PubChem BioAssay (NCI).
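Exposure lasted 48 hours, with cells grown in 96-well plates and compounds tested at five concentrations. At the GI50, growth is halved. TGI is the concentration that stops growth completely.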

Experiments:
Experiment in all cases: NCI-60 cell line screen, 48 h
786-0 renal = test system: 786-0 renal
A498 renal = test system: A498 renal
A549 NSCLC = test system: A549 NSCLC
ACHN renal = test system: ACHN renal
BT-549 breast = test system: BT-549 breast
CAKI-1 renal = test system: CAKI-1 renal
CCRF-CEM leukemia = test system: CCRF-CEM leukemia
COLO 205 colon = test system: COLO 205 colon
DU-145 prostate = test system: DU-145 prostate
HCC-2998 colon = test system: HCC-2998 colon
HCT-116 colon = test system: HCT-116 colon
HCT-15 colon = test system: HCT-15 colon
HOP-62 NSCLC = test system: HOP-62 NSCLC
HOP-92 NSCLC = test system: HOP-92 NSCLC
HS 578T breast = test system: HS 578T breast
HT29 colon = test system: HT29 colon
IGROV1 ovarian = test system: IGROV1 ovarian
KM12 colon = test system: KM12 colon
M14 melanoma = test system: M14 melanoma
MALME-3M melanoma = test system: MALME-3M melanoma
MCF7 breast = test system: MCF7 breast
MDA-MB-231 breast = test system: MDA-MB-231 breast
MDA-MB-435 = test system: MDA-MB-435
MOLT-4 leukemia = test system: MOLT-4 leukemia
NCI-H460 lung = test system: NCI-H460 lung
NCI-H522 lung = test system: NCI-H522 lung
NCI/ADR-RES ovarian = test system: NCI/ADR-RES ovarian
OVCAR-3 ovarian = test system: OVCAR-3 ovarian
OVCAR-4 ovarian = test system: OVCAR-4 ovarian
OVCAR-5 ovarian = test system: OVCAR-5 ovarian
OVCAR-8 ovarian = test system: OVCAR-8 ovarian
PC-3 prostate = test system: PC-3 prostate
RPMI-8226 leukemia = test system: RPMI-8226 leukemia
RXF 393 renal = test system: RXF 393 renal
SF-268 CNS = test system: SF-268 CNS
SF-539 CNS = test system: SF-539 CNS
SK-MEL-2 melanoma = test system: SK-MEL-2 melanoma
SK-MEL-28 melanoma = test system: SK-MEL-28 melanoma
SK-MEL-5 melanoma = test system: SK-MEL-5 melanoma
SK-OV-3 ovarian = test system: SK-OV-3 ovarian
SN12C renal = test system: SN12C renal
SNB-19 CNS = test system: SNB-19 CNS
SNB-75 CNS = test system: SNB-75 CNS
SR leukemia = test system: SR leukemia
SW-620 colon = test system: SW-620 colon
TK-10 renal = test system: TK-10 renal
U251 CNS = test system: U251 CNS
UACC-257 melanoma = test system: UACC-257 melanoma
UACC-62 melanoma = test system: UACC-62 melanoma
UO-31 renal = test system: UO-31 renal

O=C1Nc2cc(OC(F)(F)F)ccc2Oc2ccc(-c3ccnc(N4CCNCC4)c3)cc21
GI50 (786-0 renal): 1530 nM | TGI (786-0 renal): 2890 nM | GI50 (A498 renal): 1600 nM | TGI (A498 renal): 2950 nM | GI50 (A549 NSCLC): 1130 nM | TGI (A549 NSCLC): 2510 nM | GI50 (ACHN renal): 1680 nM | TGI (ACHN renal): 3050 nM | GI50 (BT-549 breast): 1950 nM | TGI (BT-549 breast): 3740 nM | GI50 (CAKI-1 renal): 1150 nM | TGI (CAKI-1 renal): 2430 nM | GI50 (CCRF-CEM leukemia): 1870 nM | TGI (CCRF-CEM leukemia): 6760 nM | GI50 (COLO 205 colon): 1540 nM | TGI (COLO 205 colon): 3080 nM | GI50 (DU-145 prostate): 1650 nM | TGI (DU-145 prostate): 3080 nM | GI50 (HCC-2998 colon): 1330 nM | TGI (HCC-2998 colon): 2690 nM | GI50 (HCT-116 colon): 1000 nM | TGI (HCT-116 colon): 2170 nM | GI50 (HCT-15 colon): 864 nM | TGI (HCT-15 colon): 4560 nM | GI50 (HOP-62 NSCLC): 1600 nM | TGI (HOP-62 NSCLC): 3260 nM | GI50 (HOP-92 NSCLC): 1170 nM | TGI (HOP-92 NSCLC): 2510 nM | GI50 (HS 578T breast): 1700 nM | TGI (HS 578T breast): 3980 nM | GI50 (HT29 colon): 764 nM | TGI (HT29 colon): 2060 nM | GI50 (IGROV1 ovarian): 1200 nM | TGI (IGROV1 ovarian): 2550 nM | GI50 (KM12 colon): 900 nM | TGI (KM12 colon): 2740 nM | GI50 (M14 melanoma): 1230 nM | TGI (M14 melanoma): 2540 nM | GI50 (MALME-3M melanoma): 1260 nM | TGI (MALME-3M melanoma): 2740 nM | GI50 (MCF7 breast): 840 nM | TGI (MCF7 breast): > 100000 nM | GI50 (MDA-MB-231 breast): 1610 nM | TGI (MDA-MB-231 breast): 3180 nM | GI50 (MDA-MB-435): 282 nM | TGI (MDA-MB-435): 1030 nM | GI50 (MOLT-4 leukemia): 1080 nM | TGI (MOLT-4 leukemia): 3290 nM | GI50 (NCI-H460 lung): 655 nM | TGI (NCI-H460 lung): 1940 nM | GI50 (NCI-H522 lung): 1590 nM | TGI (NCI-H522 lung): 3160 nM | GI50 (NCI/ADR-RES ovarian): 1610 nM | TGI (NCI/ADR-RES ovarian): 3500 nM | GI50 (OVCAR-3 ovarian): 1120 nM | TGI (OVCAR-3 ovarian): 2490 nM | GI50 (OVCAR-4 ovarian): 1620 nM | TGI (OVCAR-4 ovarian): 3250 nM | GI50 (OVCAR-5 ovarian): 1460 nM | TGI (OVCAR-5 ovarian): 3290 nM | GI50 (OVCAR-8 ovarian): 1580 nM | TGI (OVCAR-8 ovarian): 3000 nM | GI50 (PC-3 prostate): 1290 nM | TGI (PC-3 prostate): 2870 nM | GI50 (RPMI-8226 leukemia): 1840 nM | TGI (RPMI-8226 leukemia): 4780 nM | GI50 (RXF 393 renal): 1390 nM | TGI (RXF 393 renal): 2840 nM | GI50 (SF-268 CNS): 1700 nM | TGI (SF-268 CNS): 3480 nM | GI50 (SF-539 CNS): 1580 nM | TGI (SF-539 CNS): 2980 nM | GI50 (SK-MEL-2 melanoma): 1470 nM | TGI (SK-MEL-2 melanoma): 2930 nM | GI50 (SK-MEL-28 melanoma): 1390 nM | TGI (SK-MEL-28 melanoma): 2730 nM | GI50 (SK-MEL-5 melanoma): 1620 nM | TGI (SK-MEL-5 melanoma): 3010 nM | GI50 (SK-OV-3 ovarian): 2570 nM | TGI (SK-OV-3 ovarian): 6790 nM | GI50 (SN12C renal): 1790 nM | TGI (SN12C renal): 3620 nM | GI50 (SNB-19 CNS): 1550 nM | TGI (SNB-19 CNS): 3140 nM | GI50 (SNB-75 CNS): 1500 nM | TGI (SNB-75 CNS): 2860 nM | GI50 (SR leukemia): 345 nM | TGI (SR leukemia): 1820 nM | GI50 (SW-620 colon): 516 nM | TGI (SW-620 colon): 1730 nM | GI50 (TK-10 renal): 1500 nM | TGI (TK-10 renal): 3470 nM | GI50 (U251 CNS): 1460 nM | TGI (U251 CNS): 2850 nM | GI50 (UACC-257 melanoma): 1550 nM | TGI (UACC-257 melanoma): 3050 nM | GI50 (UACC-62 melanoma): 1650 nM | TGI (UACC-62 melanoma): 3150 nM | GI50 (UO-31 renal): 1340 nM | TGI (UO-31 renal): 2660 nM
